Article PMC2330087, “Mechanistic Insights into a Novel Exporter-Importer System of Mycobacterium tuberculosis Unravel Its Role in Trafficking of Iron” (PLoS ONE, 2008)

Molecular target: T1, rIrtA (Rv1348) in LP-48 liposomes (Mycobacterium tuberculosis, UniProt P9WQJ9)
T1 construct: gene irtA
T1 sequence (P9WQJ9 whole entry): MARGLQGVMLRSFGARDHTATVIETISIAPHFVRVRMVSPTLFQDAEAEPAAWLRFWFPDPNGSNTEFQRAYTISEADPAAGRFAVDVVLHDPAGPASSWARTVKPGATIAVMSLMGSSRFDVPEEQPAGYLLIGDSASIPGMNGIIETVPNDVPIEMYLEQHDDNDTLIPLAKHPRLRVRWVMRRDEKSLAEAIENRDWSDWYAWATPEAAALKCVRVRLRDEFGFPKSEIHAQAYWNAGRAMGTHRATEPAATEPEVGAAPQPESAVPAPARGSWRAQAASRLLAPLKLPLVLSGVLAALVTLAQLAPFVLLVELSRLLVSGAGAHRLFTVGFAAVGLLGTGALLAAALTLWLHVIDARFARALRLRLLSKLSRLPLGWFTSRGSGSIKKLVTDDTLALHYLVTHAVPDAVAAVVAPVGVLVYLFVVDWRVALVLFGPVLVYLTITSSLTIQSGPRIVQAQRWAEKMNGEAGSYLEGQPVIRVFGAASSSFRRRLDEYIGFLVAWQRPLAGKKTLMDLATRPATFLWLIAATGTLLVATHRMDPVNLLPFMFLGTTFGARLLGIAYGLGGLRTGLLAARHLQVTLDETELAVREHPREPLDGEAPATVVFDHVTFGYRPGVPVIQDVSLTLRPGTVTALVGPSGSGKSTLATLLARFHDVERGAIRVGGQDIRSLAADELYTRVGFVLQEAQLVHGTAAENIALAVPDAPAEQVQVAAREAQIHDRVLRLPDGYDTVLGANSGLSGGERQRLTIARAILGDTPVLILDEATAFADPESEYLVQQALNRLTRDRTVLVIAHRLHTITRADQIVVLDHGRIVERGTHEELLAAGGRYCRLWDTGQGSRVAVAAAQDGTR

SMILES: Nc1ncnc2c1ncn2[C@@H]1O[C@H](COP(=O)(O)OP(=O)(O)OP(=O)(O)O)[C@@H](O)[C@H]1O [ATP]
- inorganic phosphate release in proteoliposomes: the ATP hydrolysis by rIrtA was not seen in the absence of cMyco
